Assay results published in ChEMBL document CHEMBL4190316, “Synthesis and biological evaluation of 4-biphenylamino-5-halo-2(5H)-furanones as potential anticancer agents” (Eur J Med Chem, 2017).

What was measured:
C6 = test: Cytotoxicity against rat C6 cells assessed as reduction in cell viability after 72 hrs by MTT assay; format: functional, cell-based; conditions: C6, 72 h
HaCaT = test: Cytotoxicity against human HaCaT cells assessed as reduction in cell viability after 72 hrs by MTT assay; format: cell-based
CNE = test: Cytotoxicity against human CNE1 cells assessed as reduction in cell viability after 72 hrs by MTT assay; format: functional, cell-based
MDA-MB-231 = test: Cytotoxicity against human MDA-MB-231 cells assessed as reduction in cell viability after 72 hrs by MTT assay; format: functional, cell-based; conditions: MDA-MB-231, 72 h
MCF7 = test: Cytotoxicity against human MCF7 cells assessed as reduction in cell viability after 72 hrs by MTT assay; format: functional, cell-based; conditions: MCF7, 72 h
HepG2 = test: Cytotoxicity against human HepG2 cells assessed as reduction in cell viability after 72 hrs by MTT assay; format: functional, cell-based; conditions: HepG2, 72 h
[1] = Octanol-water partition coefficient, log P of the compound at 10 mM after 24 hrs by UV-vis spectroscopic method; format: physicochemical
[2] = Cytotoxicity against human NCI-EC1 cells assessed as reduction in cell viability after 72 hrs by MTT assay; format: functional, cell-based

SMILES | IC50 (C6) [µM] | IC50 (HaCaT) [µM] | IC50 (CNE) [µM] | IC50 (MDA-MB-231) [µM] | IC50 (MCF7) [µM] | IC50 (HepG2) [µM] | logP at 24 h, 10000 µM [1] | IC50 [2] [µM]
CCOC1OC(=O)C(Cl)=C1Nc1ccc(-c2ccc(N)cc2)cc1 (stereo not given) | 49.6 | 44.8 | > 100 | 37.7 | > 100 | > 100 | 1.64 | –
COC1OC(=O)C(Cl)=C1Nc1ccc(-c2ccccc2)cc1 (stereo not given) | 36.3 | 41.2 | 53.5 | 66.5 | 40.6 | 35.8 | 1.5 | 32.2
